Read-outs that look alike come from different tables or passages of the source.
Columns and labels:
PC-3 cells [1] = assay: WST-1 cell proliferation assay, PC-3; assay type: cell-based, human; conditions: for IC50 (Silibinin)/IC50(Derivative) PC-3: fold potency relative to silibinin; for IC50: WST-1, three days of exposure, mean ± SD, n = 3
Protocol: (§1) The in vitro antiproliferative activities of six 7-O-substituted and 26 3-O-substituted silybin derivatives were evaluated using the WST-1 cell proliferation assay, according to the procedure as described in the Experimental Section in both androgen-sensitive (LNCaP) and androgen-insensitive (PC-3 and DU145) human prostate cancer cell lines. Silibinin and docetaxel were used as a positive control for comparison in the parallel experiments and the IC50 values calculated from the dose-response curves are summarized in Table 1. […] A three-carbon linker in 11 and 29, as well as a five-carbon linker in 31, 37 and 40, are beneficial to the potency.
(§2) All cell lines were initially purchased from American Type Culture Collection (ATCC^TM) (Manassas, VA, USA). The PC-3 and LNCaP prostate cancer cell lines were routinely cultured in RPIM-1640 medium supplemented with 10% FBS and 1% penicillin/streptomycin. The DU145 prostate cancer cells were routinely cultured in Eagle’s Minimum Essential Medium (EMEM) supplemented with 10% FBS and 1% penicillin/streptomycin. Cultures were maintained in a high humidity environment supplemented with 5% carbon dioxide at a temperature of 37 °C.
(§3) PC-3, DU145, or LNCaP cells were plated in 96-well plates at a density of 3,200 per well in 200 µL of culture medium. The cells were then separately treated with silibinin, or synthesized silibinin derivatives, at five different doses for three days, while equal treatment volumes of DMSO (0.25%) were used as the vehicle control. The cells were cultured in a CO2 incubator at 37 °C for three days. A total of 10 µL of the premixed WST-1 cell proliferation reagent (Clontech) was added to each well. After mixing gently for one min on an orbital shaker, the cells were incubated for an additional 3 h at 37 °C. To ensure a homogeneous distribution of color, it is important to mix gently on an orbital shaker for one min. The absorbance of each well was measured using a microplate reader (Synergy HT, BioTek, Winooski, VT, USA) at a wavelength of 430 nm. […] For calculating the IC50 values, a linear proliferative inhibition was made based on at least five dosages for each compound.

DU145 cells [2] = assay: WST-1 cell proliferation assay, DU145; assay type: cell-based, human; conditions: for IC50 (Silibinin)/IC50(Derivative) DU145: fold potency relative to silibinin; for IC50: Homo sapiens, DU-145, 72 h, WST-1, three days of exposure, mean ± SD, n = 3
Protocol: as §1, §2, §3

LNCaP cells [3] = assay: WST-1 cell proliferation assay, LNCaP; assay type: cell-based, human; conditions: for IC50 (Silibinin)/IC50(Derivative) LNCaP: fold potency relative to silibinin; for IC50: WST-1, three days of exposure, mean ± SD, n = 3
Protocol: as §1, §2, §3

PC-3 cells [4] = conditions: WST-1, three days of exposure; cited from earlier work
DU145 cells [5] = conditions: WST-1, three days of exposure; cited from earlier work
LNCaP cells [6] = conditions: WST-1, three days of exposure; cited from earlier work
[7] = tested on: MCF 10A non-neoplastic human mammary epithelial cell line; assay: WST-1 cell proliferation assay, MCF 10A non-neoplastic cells; assay type: cell-based; conditions: for IC50: Homo sapiens, MCF-10A, 72 h, WST-1, three days of exposure, mean ± SD, n = 3
Protocol: (§4) Silibinin and five potent derivatives (11, 29, 31, 37, and 40) were selected for further evaluation against the MCF 10A non-neoplastic human mammary epithelial cell line and PWR-1E non-neoplastic human prostate epithelial cells.
as §3

[8] = tested on: PWR-1E non-neoplastic human prostate epithelial cells; assay: WST-1 cell proliferation assay, PWR-1E non-neoplastic cells; assay type: cell-based; conditions: for IC50: Homo sapiens, PWR-1E, 72 h, WST-1, three days of exposure, mean ± SD, n = 3
Protocol: as §4, §3

PC-3 cells [9] = assay: Cell cycle analysis by flow cytometry (propidium iodide); assay type: cell-based, human; conditions: 20 µM, 16 h; controls 55.7% (11), 36.2% (29), 33.1% (31, 37, 40)
Protocol: Silibinin can arrest the rat (H-7 and I-8) and human prostate cancer cell (LNCaP) cycle at the G1 phase, and cause G1 and G2-M PC-3 prostate cancer cell cycle arrest.
PC-3 cells were plated in 24-well plates at a density of 200,000 per well in 400 µL of culture medium. […] […] Both attached and floating cells were collected in a centrifuge tube by centrifugation at an rcf value of 450 g for 5 min. After discarding the supernatant, the collected cells were re-suspended with 500 µL 80% cold ethanol to fix them for 30 min in 4 °C. The fixed cells could be stored at −20 °C for one week. After fixation, the ethanol was removed after centrifuging and the cells were washed with PBS. The cells were then re-suspend with 100 μL of […] ribonuclease and were cultured at 37 °C for 30 min to degrade all RNA. The cells were stained with 200 μL of 50 μg/mLpropidium iodide stock solution for 30 min at […], and then the fluorescence intensity of PI was detected in individual PC-3 cells using an Attune flow cytometer (Life Technologies, Carlsbad, CA, USA) within 0.5 to 1 h after staining.

[10] = tested on: prostate cancer cell lines (LNCaP, PC-3 and DU145); assay: WST-1 cell proliferation assay, three prostate cancer cell lines together; assay type: cell-based, human; conditions: range for the five optimal derivatives over PC-3, DU145, LNCaP; for IC50: Homo sapiens
From the text: As part of our ongoing silybin project, this study aims to introduce a basic nitrogen-containing group to 7-OH of 3,5,20-O-trimethyl-2,3-dehydrosilybin or 3-OH of 5,7,20-O-trimethyl-2,3-dehydrosilybin via an appropriate linker for in vitro evaluation as potential anti-prostate cancer agents. The synthetic approaches to 7-O-substituted-3,5,20-O-trimethyl-2,3-dehydrosilybins through a five-step procedure and to 3-O-substituted-5,7,20-O-trimethyl-2,3- dehydrosilybins via a four-step transformation have been developed. Thirty-two nitrogen-containing derivatives of silybin have been achieved through these synthetic methods for the evaluation of their antiproliferative activities towards both androgen-sensitive (LNCaP) and androgen-insensitive prostate cancer cell lines (PC-3 and DU145) using the WST-1 cell proliferation assay. […] All these five optimal derivatives can arrest the PC-3 cell cycle in the G0/G1 phase and promote PC-3 cell apoptosis.
as §3
In summary, six 7-O-aminoalkyl-3,5-20-O-trimethyl-2,3-dehydrosilybins and 26 3-O-aminoalkyl-5,7,20-O-trimethyl-2,3-dehydrosilybins have been successfully synthesized through a five-step and four-step sequence, respectively. The synthetic methods can be used for the general synthesis of 7-O-substituted-3,5,20-O-trimethyl-2,3-dehydrosilybins and 3-O-substituted-5,7,20-O- trimethyl-2,3-dehydrosilybins. The antiproliferative activities of the 32 derivatives against three prostate cancer cell lines have been evaluated using the WST-1 cell proliferation assay. […] All these five optimal derivatives can cause PC-3 cell accumulation in a G0/G1 phase by increasing the cell population in this phase at 16 h. Derivatives 11, 37, and 40 show a stronger ability than derivatives 29 and 31 in activating PC-3 cell apoptosis by inducing appreciable levels of apoptotic cell death at a 5 µM concentration after 16 h of treatment.

PC-3 cells [11] = assay: F2N12S and SYTOX AADvanced double staining apoptosis assay; assay type: cell-based, human; conditions: for early phase apoptosis in PC-3 cells: 5 µM; for early phase apoptosis in PC-3 cells / early apoptotic cells / late apoptotic/necrotic cells / maximum apoptotic cell population / apoptotic cell death: 16 h; for early phase apoptosis in PC-3 cells / early apoptotic cells / late apoptotic/necrotic cells: range over 11, 37, 40; for concentration at which the apoptotic cell population reached its maximum: PC-3, 16 h; for maximum apoptotic cell population: 50 µM; for apoptotic cell death: up to a 10 µM concentration

| SMILES | IC50 (Silibinin)/IC50(Derivative) PC-3 (PC-3 cells [1]) | IC50 (Silibinin)/IC50(Derivative) DU145 (DU145 cells [2]) | IC50 (Silibinin)/IC50(Derivative) LNCaP (LNCaP cells [3]) | IC50 (DU145 cells [2]) | IC50 (LNCaP cells [3]; Homo sapiens, LNCaP, 72 h) | IC50 (LNCaP cells [3]) | IC50 [7] | IC50 [8] | PC-3 cell population in G0/G1 phase (PC-3 cells [9]) | IC50 [10] | fold improvement in potency compared to silibinin [10] | early phase apoptosis in PC-3 cells (PC-3 cells [11]) | early apoptotic cells (PC-3 cells [11]; 10 µM) | late apoptotic/necrotic cells (PC-3 cells [11]; 10 µM) | early apoptotic cells (PC-3 cells [11]; 20 µM) | late apoptotic/necrotic cells (PC-3 cells [11]; 20 µM) | concentration at which the apoptotic cell population reached its maximum (PC-3 cells [11]) | IC50 (PC-3 cells [1]; Homo sapiens, PC-3, 72 h) | IC50 (PC-3 cells [1]) | other results |
| --- | --- | --- | --- | --- | --- | --- | --- | --- | --- | --- | --- | --- | --- | --- | --- | --- | --- | --- | --- | --- |
| COc1cc(C2Oc3cc(-c4oc5cc(O)cc(O)c5c(=O)c4O)ccc3OC2CO)ccc1O (stereo not drawn) [Compound 2, 2,3-dehydrosilybin] | 8 | 8 | 14 |  |  |  |  |  |  |  |  |  |  |  |  |  |  |  |  | IC50 (PC-3 cells [4]): 9450 ± 560 nM; IC50 (DU145 cells [5]): 11500 ± 1420 nM; IC50 (LNCaP cells [6]): 3090 ± 1300 nM |
| CCOc1cc(O)c2c(=O)c(O)c(-c3ccc4c(c3)OC(c3ccc(O)c(OC)c3)C(CO)O4)oc2c1 (stereo not drawn) [Compound 3, 7-O-ethyl-2,3-dehydrosilybin, reference compound] | 22 | 12 | 17 |  |  |  |  |  |  |  |  |  |  |  |  |  |  |  |  | IC50 (PC-3 cells [4]): 3250 ± 310 nM; IC50 (DU145 cells [5]): 7590 ± 660 nM; IC50 (LNCaP cells [6]): 2580 ± 70 nM |
| CCCN(CCC)CCCOc1cc(OC)c2c(=O)c(OC)c(-c3ccc4c(c3)OC(c3ccc(OC)c(OC)c3)C(CO)O4)oc2c1 (stereo not drawn) [Compound 11] | 52 | 51 | 24 | 1840 ± 140 nM | ≤ 3000 nM | 1820 ± 140 nM | > 50000 nM | > 50000 nM | 66.3% | 1400 to 3060 nM | 17- to 52 fold | 26–59% | 56–76% | 6–40% | 54–75% | 16–44% | 5 µM |  |  | antiproliferative activity towards MCF 10A ([7]; up to a 50 µM concentration): does not demonstrate apparent antiproliferative activity; antiproliferative activity towards PWR-1E ([8]; up to a 50 µM concentration): does not demonstrate apparent antiproliferative activity |
| CCCCN(CCCC)CCCOc1c(-c2ccc3c(c2)OC(c2ccc(OC)c(OC)c2)C(CO)O3)oc2cc(OC)cc(OC)c2c1=O (stereo not drawn) [Compound 29] |  |  |  | 2510 ± 40 nM | ≤ 3000 nM | 2210 ± 170 nM | < 5000 nM | < 5000 nM | 50.3% | 1400 to 3060 nM | 17- to 52 fold |  |  |  |  |  |  | ≤ 3000 nM | 2730 ± 120 nM | maximum apoptotic cell population (PC-3 cells [11]): 71%; apoptotic cell death (PC-3 cells [11]): less than 10% |
| CCCCN(CCCC)CCCCCOc1c(-c2ccc3c(c2)OC(c2ccc(OC)c(OC)c2)C(CO)O3)oc2cc(OC)cc(OC)c2c1=O (stereo not drawn) [Compound 31] |  |  |  | 2850 ± 230 nM | ≤ 3000 nM | 2510 ± 310 nM | < 5000 nM | < 5000 nM | 35.9% | 1400 to 3060 nM | 17- to 52 fold |  |  |  |  |  |  | ≤ 3000 nM | 2840 ± 100 nM | maximum apoptotic cell population (PC-3 cells [11]): 95%; apoptotic cell death (PC-3 cells [11]): less than 10% |
| COc1cc(OC)c2c(=O)c(OCCCCCN3CCCCC3)c(-c3ccc4c(c3)OC(c3ccc(OC)c(OC)c3)C(CO)O4)oc2c1 (stereo not drawn) [Compound 37] |  |  |  | 2690 ± 30 nM | ≤ 3000 nM | 1990 ± 230 nM | < 5000 nM | < 5000 nM | 34.6% | 1400 to 3060 nM | 17- to 52 fold | 26–59% | 56–76% | 6–40% | 54–75% | 16–44% | 10 µM | ≤ 3000 nM | 2710 ± 230 nM |  |
| COc1cc(OC)c2c(=O)c(OCCCCCN3CCOCC3)c(-c3ccc4c(c3)OC(c3ccc(OC)c(OC)c3)C(CO)O4)oc2c1 (stereo not drawn) [Compound 40] |  |  |  | 3060 ± 130 nM | ≤ 3000 nM | 2230 ± 180 nM | < 5000 nM | < 5000 nM | 43.4% | 1400 to 3060 nM | 17- to 52 fold | 26–59% | 56–76% | 6–40% | 54–75% | 16–44% | 30 µM | ≤ 3000 nM | 2720 ± 80 nM |  |
| COc1cc(OC)c2c(=O)c(OCCCN3CCN(C)CC3)c(-c3ccc4c(c3)OC(c3ccc(OC)c(OC)c3)C(CO)O4)oc2c1 (stereo not drawn) [Compound 44] | 9 | 5 | 3 | 18600 ± 7670 nM | 12800 ± 7800 nM |  |  |  |  |  |  |  |  |  |  |  |  | 8450 ± 2890 nM |  |  |
| COc1cc(OC)c2c(=O)c(OCCCCCN3CCN(C)CC3)c(-c3ccc4c(c3)OC(c3ccc(OC)c(OC)c3)C(CO)O4)oc2c1 (stereo not drawn) [Compound 45] | 15 | 11 | 8 | 8590 ± 2230 nM | 5660 ± 440 nM |  |  |  |  |  |  |  |  |  |  |  |  | 4720 ± 880 nM |  |  |
| CC(=O)O[C@@]12CO[C@@H]1C[C@H](O)[C@@]1(C)C(=O)[C@H](O)C3=C(C)[C@@H](OC(=O)[C@H](O)[C@@H](NC(=O)OC(C)(C)C)c4ccccc4)C[C@@](O)([C@@H](OC(=O)c4ccccc4)[C@H]21)C3(C)C [Docetaxel, docetaxel, reference compound] |  |  |  | 1.2 ± 0.3 nM | 0.2 ± 0.1 nM |  |  |  |  |  |  |  |  |  |  |  |  | 1.9 ± 0.6 nM |  |  |

Reference: publication PMC6320956, “O-Aminoalkyl-O-Trimethyl-2,3-Dehydrosilybins: Synthesis and In Vitro Effects Towards Prostate Cancer Cells” (Molecules, 2018)
